Earlier results in paper PMC11768433 (Viruses, 2024).
Like-named read-outs stand apart in the source and are kept apart here.

Tests used:
[1] = tested on: Human endocervical cells End1/E6E7; set-up: method as in Ref.26026377; conditions: ref Ref.26026377
TZM-bl cell = tested on: TZM-bl cell; set-up: method as in Ref.30089693; conditions: ref Ref.30089693
P4 cells = tested on: P4 cells; set-up: method as in Ref.12054767; conditions: MTT assay, peptide concentrations higher than 100 μM, ref Ref.12054767
P4-CCR5 cells = tested on: P4-CCR5 cells; set-up: method as in Ref.17448989; conditions: up to 1000 µM, ref Ref.17448989
Vero cells [2] = tested on: Vero cells; set-up: method as in Ref.18572274; conditions: up to 500 μM, ref Ref.18572274
[3] = tested on: Human parainfluenza viruse 3(HPIV 3); set-up: method as in Ref.28344321; conditions: HPIV 3 infection, Vero cells; ref Ref.28344321
Vero cells [4] = tested on: Vero cells; set-up: method as in Ref.28344321; conditions: ref Ref.28344321
MT-4 cell = tested on: MT-4 cell; set-up: method as in Ref.30089693; conditions: ref Ref.30089693
H9 cells = tested on: H9 cells; set-up: method as in Ref.12480936; conditions: up to 50 μM, ref Ref.12480936
HSV-1 = tested on: HSV-1; set-up: method as in Ref.35216177; conditions: HSV-1 replication, Vero cells; ref Ref.35216177
SARS-CoV-2 = tested on: SARS-CoV-2; set-up: method as in Ref.35216177; conditions: SARS-CoV-2 replication, Vero cells; ref Ref.35216177
[5] = tested on: influenza virus(H1N1,VR-1894); set-up: method as in Ref.35216177; conditions: influenza H1N1 VR-1894 replication, MDKC cells; ref Ref.35216177
Vero cells [6] = tested on: Vero cells; set-up: method as in Ref.35216177; conditions: ref Ref.35216177
HSV-2 = tested on: HSV-2; set-up: method as in Ref.35216177; conditions: HSV-2 replication, Vero cells; ref Ref.35216177
HCoV-229E = tested on: HCoV-229E; set-up: method as in Ref.35216177; conditions: HCoV-229E replication, Vero cells; ref Ref.35216177
HCoV-OC43 = tested on: HCoV-OC43; set-up: method as in Ref.35216177; conditions: HCoV-OC43 replication, Vero cells; ref Ref.35216177
[7] = tested on: Feline immunodeficiency virus (FIV); conditions: FIV replication, CrFK cells, at 16 µg/ml; ref Ref.8661378

## GLLSVLGSVVKHVIPHVVPVIAEHL [DRAVPe00360, DRAVP database peptide, target HIV]
[1]
  concentration at 50% cell death: 12.5 µM

## LEANIEELLKKAEEQQKKNEEELKKLEX [DRAVPe00784]
TZM-bl cell
  CC50: 434.03 µM
PBMC; PBMC, ref Ref.30089693
  CC50: 46.83 µM

## QLLIRMIYKNILFYLVPGPGHGAEPERRNIKYL [DRAVPe00090, DRAVP database peptide, target HIV-1 integrase]
P4 cells
  decrease of cell viability: ~5%

## LEAIPCSIPPCVFFNKPFVF [DRAVPe00221]
P4-CCR5 cells
  cytotoxicity: [Ref.17448989]No cytotoxicity against P4-CCR5 cells up tp 1000 µM.

## GLASTLTRWAHYNALIRAF [DRAVPe01424]
Vero cells [2]
  cytotoxicity: [Ref.18572274]No cytotoxicity against Vero cells up to 500 μM.

## LEAIPMSIPPEVKFNKPFVF [DRAVPe00192]
P4-CCR5 cells
  cytotoxicity: [Ref.17448989]No cytotoxicity against P4-CCR5 cells up tp 1000 µM.

## VALDPIDIAnti-SIVLNKAKSDLEESKEWIRRSNGKLDSIGSGSGC [DRAVPe01791]
[3]
  IC90: 0.28 ± 0.247 µM
Vero cells [4]
  CC50: [Ref.28344321]Vero cells: CC50>10000 nM.

## IEELIKKSEEQQKKNEEELKKLEX [DRAVPe00656]
TZM-bl cell
  CC50: 193.63 µM
MT-4 cell
  CC50: 164.47 µM
PBMC; PBMC, ref Ref.30089693
  CC50: 46.43 µM

## SNQGGSPLPRSV [DRAVPe00127, DRAVP database peptide, target HIV-1 Vif proteins]
H9 cells
  cytotoxicity: [Ref.12480936]No significant cytotoxicity on H9 cells up to 50 μM.

## FVPWFSKFlXRILC [DRAVPe00389, DRAVP database entry, TL peptide]
HSV-1
  IC90: 11.1 µM
SARS-CoV-2
  IC90: 12 µM
[5]
  IC90: 10 µM
Vero cells [6]
  CC50: [Ref.35216177]Vero cells:CC50>100.00 μM

## XGSGSGVALDPIDIAnti-SIVLNKAKSDLEESKEWIRRSNGKLDSI [DRAVPe01796]
[3]
  IC90: 0.0001 ± 1e-07 µM
Vero cells [4]
  CC50: [Ref.28344321]Vero cells: CC50>10000 nM.

## FVPWFSKFlxRIL [DRAVPe00382, DRAVP database entry, TL peptide]
HSV-1
  IC90: 12.8 µM
HSV-2
  IC90: 11.9 µM
SARS-CoV-2
  IC90: 17.4 µM
HCoV-229E
  IC90: > 50 µM
HCoV-OC43
  IC90: 24.7 µM
Vero cells [6]
  CC50: 32.16 µM

## LPLPAPSFHRTT [DRAVPe00128, DRAVP database peptide, target HIV-1 Vif proteins]
H9 cells
  cytotoxicity: [Ref.12480936]No significant cytotoxicity on H9 cells up to 50 μM.

## LSELDDRADALQAGASQFETSAAKLKRKYWWKN [DRAVPe00111, DRAVP database peptide, target HIV-1 integrase]
P4 cells
  decrease of cell viability: ~5%

## FVPWFSKFlwRIL [DRAVPe00386, DRAVP database entry, TL peptide]
HSV-1
  IC90: 7.89 µM
HSV-2
  IC90: 9.76 µM
SARS-CoV-2
  IC90: 14.8 µM
HCoV-229E
  IC90: 50 µM
HCoV-OC43
  IC90: 17.4 µM
Vero cells [6]
  CC50: 24.12 µM

## GLFSVLGAVAKHVLPHVVPVIAEKL [DRAVPe00355, DRAVP database peptide, target HIV]
[1]
  concentration at 50% cell death: 10 µM

## CGGFVPWFSKFlXRIL [DRAVPe00392, DRAVP database entry, TL peptide]
HSV-1
  IC90: 8.21 µM
SARS-CoV-2
  IC90: 10.2 µM
[5]
  IC90: 9.9 µM
Vero cells [6]
  CC50: [Ref.35216177]Vero cells:CC50>100.00 μM

## LKAKTNISIREGPTLGNWAR [DRAVPe00841, DRAVP database peptide, target FIV]
[7]
  inhibition: 24%

## YQLLIRPIYKNI [DRAVPe00110, DRAVP database peptide, target HIV-1 integrase]
P4 cells
  decrease of cell viability: ~5%

## YTSLIEELIKKSEEQQKKNEEELKKLEX [DRAVPe00783]
TZM-bl cell
  CC50: 106.4 µM
MT-4 cell
  CC50: 138.37 µM
PBMC
  CC50: 40.01 µM

## IEELLKKAEEQQKKNEEELKKLEX [DRAVPe00660]
TZM-bl cell
  CC50: 256.23 µM
PBMC; PBMC, ref Ref.30089693
  CC50: 49.95 ± 2.97 µM

## FVPWFSKFlXRIL [DRAVPe00396, DRAVP database entry, TL peptide]
HSV-1
  IC90: 4.96 µM
SARS-CoV-2
  IC90: 6.96 µM
[5]
  IC90: 7.11 µM
Vero cells [6]
  CC50: [Ref.35216177]Vero cells:CC50>100.00 μM

## QLLIRMIYKNI [DRAVPe00109, DRAVP database peptide, target HIV-1 integrase]
P4 cells
  decrease of cell viability: ~5%

## LEAIPCSIPPCFAFNKPFVF [DRAVPe00222]
P4-CCR5 cells
  cytotoxicity: [Ref.17448989]No cytotoxicity against P4-CCR5 cells up tp 1000 µM.

## YQLLIRMIYANI [DRAVPe00104, DRAVP database peptide, target HIV-1 integrase]
P4 cells
  decrease of cell viability: ~5%

## GLFKVLGSVAKHLLPHVAPVIAEKL [DRAVPe00356, DRAVP database peptide, target HIV]
[1]
  concentration at 50% cell death: 12.5 µM

## FVPWFSKFlPRIL [DRAVPe00378, DRAVP database entry, TL peptide]
HSV-1
  IC90: 18.8 µM
HSV-2
  IC90: 19.2 µM
SARS-CoV-2
  IC90: 14 µM
HCoV-OC43
  IC90: 24.1 µM
Vero cells [6]
  CC50: 56.52 µM

## FVPWFSKFlpRIL [DRAVPe00379, DRAVP database entry, TL peptide]
Vero cells [6]
  CC50: [Ref.35216177]Vero cells:CC50>100 μM

## YTSLIHSLIEESQNQQEKNEQELLELDX [DRAVPe00782]
TZM-bl cell
  CC50: 800.8 µM
MT-4 cell
  CC50: 366.3 µM
PBMC; PBMC, ref Ref.30089693
  CC50: 212.6 µM

## YQALIRMIYKNI [DRAVPe00097, DRAVP database peptide, target HIV-1 integrase]
P4 cells
  decrease of cell viability: ~5%

## LFYLVPGPGH [DRAVPe00094, DRAVP database peptide, target HIV-1 integrase]
P4 cells
  decrease of cell viability: ~5%

## FVPWFSKFlXRILGGC [DRAVPe00390, DRAVP database entry, TL peptide]
HSV-1
  IC90: 48 µM
SARS-CoV-2
  IC90: 50 µM
[5]
  IC90: 49.9 µM
Vero cells [6]
  CC50: [Ref.35216177]Vero cells:CC50>100.00 μM

## LEAIPMSIPPEFLFGKPFVF [DRAVPe00223]
P4-CCR5 cells
  cytotoxicity: [Ref.17448989]No cytotoxicity against P4-CCR5 cells up tp 1000 µM.

## CFVPWFSKFlXRIL [DRAVPe00391, DRAVP database entry, TL peptide]
HSV-1
  IC90: 2.19 µM
SARS-CoV-2
  IC90: 1.89 µM
[5]
  IC90: 5.89 µM
Vero cells [6]
  CC50: [Ref.35216177]Vero cells:CC50>100.00 μM

## FVPWFSKFlWRIL [DRAVPe00385, DRAVP database entry, TL peptide]
HSV-1
  IC90: 8.25 µM
HSV-2
  IC90: 12.5 µM
SARS-CoV-2
  IC90: 27.7 µM
HCoV-229E
  IC90: 50 µM
HCoV-OC43
  IC90: 24.2 µM
Vero cells [6]
  CC50: 35.47 µM

## VALDPIDIAnti-SIVLNKAKSDLEESKEWIRRSNGKLDSIGSGSGX [DRAVPe01793]
[3]
  IC90: 0.0007 ± 7e-06 µM
Vero cells [4]
  CC50: 4.5 µM

## KVINPEPIVEPFMSKPFALF [DRAVPe00230]
P4-CCR5 cells
  cytotoxicity: [Ref.17448989]No cytotoxicity against P4-CCR5 cells up tp 1000 µM.

## YLDRVDTWLQGKINISLCLT [DRAVPe00846, DRAVP database peptide, target FIV]
[7]
  inhibition: 9%

## FVPWFSKFlGRIL [DRAVPe00377, DRAVP database entry, TL peptide]
HSV-1
  IC90: 18.7 µM
HSV-2
  IC90: 16.7 µM
SARS-CoV-2
  IC90: 12.1 µM
HCoV-229E
  IC90: 30.1 µM
HCoV-OC43
  IC90: 15 µM
Vero cells [6]
  CC50: 42.18 µM

## FVQWFSKFLGRIL [DRAVPe00376, DRAVP database entry, TL peptide]
HSV-1
  IC90: 15.7 µM
HSV-2
  IC90: 16 µM
Vero cells [6]
  CC50: 19.61 µM

## WEQKIEELLKKAEEQQKKNEEELKKLEX [DRAVPe00785]
TZM-bl cell
  CC50: 112.9 µM
PBMC; PBMC, ref Ref.30089693
  CC50: 114.8 µM

## LEAIPMGIPpEVXFNKPFVF [DRAVPe00228]
P4-CCR5 cells
  cytotoxicity: [Ref.17448989]No cytotoxicity against P4-CCR5 cells up tp 1000 µM.

## LEAIPCSIPpCFLFNKPFVF [DRAVPe00227]
P4-CCR5 cells
  cytotoxicity: [Ref.17448989]No cytotoxicity against P4-CCR5 cells up tp 1000 µM.

## YQLAIRMIYKNI [DRAVPe00098, DRAVP database peptide, target HIV-1 integrase]
P4 cells
  decrease of cell viability: ~5%

## PACQDFLGAMIHLKAKTNISIR [DRAVPe00840, DRAVP database peptide, target FIV]
[7]
  inhibition: 28%

## FVPWFSKFlXRIL [DRAVPe00380, DRAVP database entry, TL peptide]
HSV-1
  IC90: 15.9 µM
HSV-2
  IC90: 19 µM
SARS-CoV-2
  IC90: 25 µM
HCoV-229E
  IC90: > 50 µM
HCoV-OC43
  IC90: 27.7 µM
Vero cells [6]
  CC50: 60.90 µM

## KPKQIKPPLPSV [DRAVPe00130, DRAVP database peptide, target HIV-1 Vif proteins]
H9 cells
  cytotoxicity: [Ref.12480936]No significant cytotoxicity on H9 cells up to 50 μM.
